Reference: publication PMC6010071, “Blocking oestradiol synthesis pathways with potent and selective coumarin derivatives” (Journal of Enzyme Inhibition and Medicinal Chemistry, 2018)

Assays:
Format in all cases: biochemical
recombinant human HSD1 = target: T1, recombinant human HSD1 (Homo sapiens, UniProt P14061); experiment: HSD1 inhibition, HPLC assay of [3H]-E1 to [3H]-E2 conversion
T1 construct: made in house; host or cells: Sf9 insect cells
T1 sequence (P14061 1-328): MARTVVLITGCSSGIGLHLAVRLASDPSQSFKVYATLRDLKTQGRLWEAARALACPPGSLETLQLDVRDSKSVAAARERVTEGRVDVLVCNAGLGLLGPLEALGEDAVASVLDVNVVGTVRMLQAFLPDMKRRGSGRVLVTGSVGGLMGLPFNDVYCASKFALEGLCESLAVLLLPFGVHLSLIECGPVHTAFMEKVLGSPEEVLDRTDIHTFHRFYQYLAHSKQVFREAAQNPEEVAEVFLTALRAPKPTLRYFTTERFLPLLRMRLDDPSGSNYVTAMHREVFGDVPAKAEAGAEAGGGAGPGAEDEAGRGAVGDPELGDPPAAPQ
Protocol: The inhibition was determined by HPLC using recombinant human HSD1 and HSD2 proteins as described in a prior study. In short, recombinant human HSD1 and HSD2 were produced in Sf9-insect cells. […] After incubation, the reaction was stopped by addition of […] 10% trichloroacetic acid per sample. […] The ratio of [3H]-E1 converted to [3H]-E2 or vice versa determines the conversion percentage of the samples. Inhibition was measured in three concentrations (100 nM, 1, and 5 µM) in order to follow the progression of inhibition efficiencies. Inhibition efficiencies of the tested inhibitors were calculated by comparing the conversion percentages of the samples including inhibitors with those of conversion controls (without inhibitors).

MAO-B = target: T2, MAO-B (Homo sapiens, UniProt P27338); experiment: MAO-B inhibition, continuous spectrophotometric assay
T2 construct: purchased Sigma-Aldrich (St. Louis, MO)
T2 sequence (P27338 1-520): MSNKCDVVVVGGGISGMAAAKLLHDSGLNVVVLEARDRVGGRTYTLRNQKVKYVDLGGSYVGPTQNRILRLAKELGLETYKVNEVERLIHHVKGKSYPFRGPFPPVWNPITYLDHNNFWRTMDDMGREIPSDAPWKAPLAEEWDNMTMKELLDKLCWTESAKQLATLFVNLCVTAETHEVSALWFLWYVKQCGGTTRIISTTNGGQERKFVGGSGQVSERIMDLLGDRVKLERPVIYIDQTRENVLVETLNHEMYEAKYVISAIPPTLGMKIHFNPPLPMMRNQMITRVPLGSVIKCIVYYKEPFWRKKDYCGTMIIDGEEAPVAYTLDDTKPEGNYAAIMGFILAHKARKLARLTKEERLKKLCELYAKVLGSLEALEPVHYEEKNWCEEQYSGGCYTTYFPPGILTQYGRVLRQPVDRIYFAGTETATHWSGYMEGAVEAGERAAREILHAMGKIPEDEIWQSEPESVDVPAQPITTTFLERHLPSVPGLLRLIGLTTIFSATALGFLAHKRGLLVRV
Protocol: The protocol of continuous spectrophotometric assay by Holt et al. was first used to determine the activity of the proteins. […] The protein was first incubated for 30 min at 37 °C in the chromogenic solution and then the substrate tyramine was introduced at 0.5 mM final plate concentration completing the assay volume. […] The assay should produce absorbance change of ∼0.35[23]. […] These protein concentrations were selected to be used to analyse the molecules 1–9. The analysis conditions followed the above-described assay protocol[23] and the activity of tested molecules was measured at 100 µM for MAO-A and at 10 µM for MAO-B. The analysis was performed as single point measurements and the signal was read by the same instrument at the expected assay maximum indicated by the activity measurements, at 30 min for MAO-A and at 2 h for MAO-B, respectively. […] The observed activity was calculated as inhibition percentage (Table 1).

[1] = target: T3, heterologously expressed human CYP1A2 enzyme (Homo sapiens, UniProt P05177); experiment: CYP1A2 inhibition; settings: read-out: CYP1A2 inhibition ∼ pIC50 (converted)
T3 construct: purchased Corning Inc., Corning, NY
T3 sequence (P05177 1-516): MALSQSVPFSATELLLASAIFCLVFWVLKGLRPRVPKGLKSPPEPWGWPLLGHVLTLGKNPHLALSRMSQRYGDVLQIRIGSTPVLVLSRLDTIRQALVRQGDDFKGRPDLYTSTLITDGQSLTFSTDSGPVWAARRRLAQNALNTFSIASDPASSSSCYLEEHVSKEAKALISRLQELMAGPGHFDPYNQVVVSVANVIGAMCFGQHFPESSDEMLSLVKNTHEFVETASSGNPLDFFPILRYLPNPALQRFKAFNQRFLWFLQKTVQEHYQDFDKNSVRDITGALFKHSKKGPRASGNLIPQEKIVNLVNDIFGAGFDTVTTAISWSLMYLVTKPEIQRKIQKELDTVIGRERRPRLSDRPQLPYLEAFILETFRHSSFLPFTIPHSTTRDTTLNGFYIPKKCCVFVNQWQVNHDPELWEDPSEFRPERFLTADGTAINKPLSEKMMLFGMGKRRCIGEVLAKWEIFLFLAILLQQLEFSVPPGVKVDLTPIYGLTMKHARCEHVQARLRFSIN
Protocol: Inhibition of CYP1A2 activity was determined using commercial heterologously expressed human CYP1A2 enzyme (Corning Inc., Corning, NY) essentially as described previously.

[2] = target: T4, Aromatase (CYP19A1), human placental microsomes (Homo sapiens, UniProt P11511); experiment: Aromatase activity, [3H]-H2O release from [3H]-androstenedione; settings: 50 nM [3H]-androstenedione; inhibitor 60–1000 nM; read-out: Aromatase inhibition ∼ pIC50 (converted)
T4 construct: by using human placental microsomes; from tissue; host or cells: human placental microsomes
T4 sequence (P11511 1-503): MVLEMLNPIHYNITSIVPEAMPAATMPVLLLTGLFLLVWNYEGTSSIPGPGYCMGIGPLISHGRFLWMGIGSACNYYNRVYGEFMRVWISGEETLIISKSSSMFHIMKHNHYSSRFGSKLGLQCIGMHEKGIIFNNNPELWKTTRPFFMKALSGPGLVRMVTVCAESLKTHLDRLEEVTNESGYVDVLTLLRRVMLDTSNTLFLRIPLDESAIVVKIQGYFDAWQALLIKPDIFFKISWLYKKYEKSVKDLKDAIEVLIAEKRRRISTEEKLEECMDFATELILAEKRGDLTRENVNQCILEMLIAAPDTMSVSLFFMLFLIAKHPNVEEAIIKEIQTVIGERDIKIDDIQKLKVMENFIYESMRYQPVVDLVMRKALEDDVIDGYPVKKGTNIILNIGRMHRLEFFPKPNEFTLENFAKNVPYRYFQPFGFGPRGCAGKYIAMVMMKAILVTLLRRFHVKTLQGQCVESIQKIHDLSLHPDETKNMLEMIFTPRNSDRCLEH
Protocol: Aromatase (CYP19A1) activity was measured as described previously[22] by using human placental microsomes and 50 nM [3H]-androstenedione as a substrate and inhibitor concentrations in the range of 60–1000 nM. Aromatase activities were measured as released [3H]-H2O in Optiphase Hisafe 2 scintillation liquid (Perkin Elmer, Waltham, MA) with a Wallac 1450 MicroBeta Trilux scintillation counter (Perkin Elmer, Waltham, MA). As a positive control for aromatase inhibition, 1 µM finrozole (generous gift from Olavi Pelkonen, University of Oulu, Finland) was used.

recombinant human HSD2 = target: T5, recombinant human HSD2 (Homo sapiens, UniProt P37059); experiment: HSD2 inhibition, HPLC assay of [3H]-E2 to [3H]-E1 conversion
T5 construct: made in house; host or cells: Sf9 insect cells
T5 sequence (P37059 1-387): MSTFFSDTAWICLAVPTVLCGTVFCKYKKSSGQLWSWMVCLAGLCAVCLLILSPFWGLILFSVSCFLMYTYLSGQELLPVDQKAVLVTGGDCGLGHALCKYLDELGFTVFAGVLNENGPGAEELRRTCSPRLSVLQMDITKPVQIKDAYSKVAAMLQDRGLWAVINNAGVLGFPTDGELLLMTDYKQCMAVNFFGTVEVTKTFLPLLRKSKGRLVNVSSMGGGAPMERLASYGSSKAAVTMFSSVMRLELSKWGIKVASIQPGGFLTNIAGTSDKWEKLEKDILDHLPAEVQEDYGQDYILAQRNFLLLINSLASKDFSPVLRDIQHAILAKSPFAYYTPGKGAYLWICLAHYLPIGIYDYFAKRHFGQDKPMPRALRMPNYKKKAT
Protocol: The inhibition was determined by HPLC using recombinant human HSD1 and HSD2 proteins as described in a prior study. In short, recombinant human HSD1 and HSD2 were produced in Sf9-insect cells. […]. After incubation, the reaction was stopped by addition of […] 10% trichloroacetic acid per sample. After incubation the substrate and the product of enzymatic conversion [3H]-E1 and [3H]-E2 were separated and quantified by HPLC (Alliance 2790, Waters, Milford, MA) connected to an online counter (Packard Flow Scintillation Analyser; Perkin Elmer Inc., Waltham, […]). The ratio of [3H]-E1 converted to [3H]-E2 or vice versa determines the conversion percentage of the samples. Inhibition was measured in three concentrations (100 nM, 1, and 5 µM) in order to follow the progression of inhibition efficiencies. Inhibition efficiencies of the tested inhibitors were calculated by comparing the conversion percentages of the samples including inhibitors with those of conversion controls (without inhibitors).

| SMILES | HSD1 inhibition (in words) (recombinant human HSD1) | inhibition at 0.1 µM (recombinant human HSD1; 100 nM, average of two measurements, except for compounds 8 and 9, read-out: HSD1 inhibition at 100 nM) [%] | inhibition at 1 µM (recombinant human HSD1; 1 µM, average of three measurements, except for compounds 8 and 9, read-out: HSD1 inhibition at 1 µM) [%] | IC50 (recombinant human HSD1; estimated from three measurements at 1 µM, average ± standard error, read-out: HSD1 inhibition ∼ pIC50 (converted)) [µM] | MAO-B inhibition (in words) (MAO-B) | inhibition at 10 µM (MAO-B; 10 µM, single point, read at 2 h, read-out: MAO-B inhibition at 10 µM) [%] | IC50 [1] [nM] | IC50 [2] [nM] | inhibition at 0.1 µM (recombinant human HSD2; 100 nM, control) [%] | inhibition at 1 µM (recombinant human HSD2; read-out: HSD2 inhibition at 1 µM) [%] |
| --- | --- | --- | --- | --- | --- | --- | --- | --- | --- | --- |
| O=c1oc2ccccc2cc1-n1ccnc1 [Compound 10, 3–(1H-imidazol-1-yl)-2H-chromen-2-one] | blocking neither HSD1 nor MAO-B | 1 | 1 | > 5.01 | blocking neither HSD1 nor MAO-B | 11 | 115 | 77.6 |  |  |
| O=c1c(Oc2ccc(Cl)cc2)coc2cc(O)cc(O)c12 [HM2001, 3–(4-Chlorophenoxy)-5,7-dihydroxychromen-4-one, reference compound] |  |  |  |  |  |  |  |  | 62.3 | 100 |
